Assay results from US20240124478A1, “SPIROCYCLIC-SUBSTITUTED 6,7-DIHYDRO-PYRANO[2,3-d]PYRIMIDINE INHIBITORS OF KRAS G12C MUTANT” (Merck Sharp & Dohme LLC, priority 2020, published 2024).
Read-outs that look alike come from different tables or passages of the source.

Columns and labels:
[1] = biological target: recombinant biotinylated KRAS protein containing G12C/C51S/C80L/C118S mutations (Biotinylated KRAS G12C protein) (Homo sapiens (Human), UniProt P01116, C118S/C51S/C80L/G12C); assay: SOS-catalyzed nucleotide exchange assay (TR-FRET); type: biochemical; details: apparent potency; preincubation time of 60 minutes prior to addition of SOS
Sequence of recombinant biotinylated KRAS protein containing G12C/C51S/C80L/C118S mutations (Biotinylated KRAS G12C protein) (P01116 other isoform, or with tags, fused parts or gaps, stated change not applied): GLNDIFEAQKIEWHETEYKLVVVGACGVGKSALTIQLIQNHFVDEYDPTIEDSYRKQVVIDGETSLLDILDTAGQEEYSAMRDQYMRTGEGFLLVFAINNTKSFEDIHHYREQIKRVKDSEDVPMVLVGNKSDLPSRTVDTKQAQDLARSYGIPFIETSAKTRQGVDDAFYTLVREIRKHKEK
Procedure: The SOS-catalyzed nucleotide exchange assay utilizes a preformed complex of recombinant biotinylated KRAS protein containing G12C/C51S/C80L/C118S mutations (183 amino acids; biotin on K10; leader sequence which is an AviTag; referred to as SEQ ID NO: 1 or “Biotinylated KRAS G12C protein” hereafter), Bodipy-GDP, and Terbium-streptavidin. Compounds are added to this complex and then after 60 minutes incubation time, the mixture is treated with recombinant SOS protein and unlabeled GTP. Small molecule inhibitors stabilize the Bodipy-GDP complex whereas the untreated protein rapidly exchanges Bodipy-GDP for unlabeled GTP resulting in reduced TR-FRET signal.
Biotinylated KRAS G12C protein (SEQ ID NO: 1) is diluted to 2 μM in an EDTA buffer (20 mM HEPES, 150 mM sodium chloride, 10 mM EDTA, and 0.01% Tween) and incubated at room temperature for one hour. This mixture is then further diluted to 90 nM in an assay buffer (20 mM HEPES, 150 mM sodium chloride, 10 mM magnesium chloride, and 0.005% Tween) containing 15 nM of Terbium-Streptavidin (Invitrogen, catalog #PV3577) and 900 nM of Bodipy-GDP and incubated at room temperature for six hours. This solution is referred to as Biotinylated KRAS G12C mixture.
Each test compound (10 mM stock in DMSO) is diluted in DMSO to make a 10-point, 3-fold dilution series in a 384-well low dead volume microplate (Labcyte, catalog #LP-0200). Once titrations are made, 10 nL of the diluted compounds is acoustically dispensed into a 384-well plate (Corning, catalog #3820) using an Echo 550 (Labcyte).
Each well of the plate receives 3 μL Biotinylated KRAS G12C mixture that had been incubating for six hours and 3 μL of assay buffer using a BioRAPTR (Beckman Coulter) and is incubated at room temperature for 60 minutes. Each well then receives 3 μL of 240 nM recombinant human SOS protein and 9 mM GTP (Sigma, G8877) in assay buffer and is incubated at room temperature for 60 minutes.
The time-resolved fluorescence resonance energy transfer signal of the plate is measured on an Envision (PerkinElmer) plate reader: Excitation filter=340 nm; emission1=495 nm; emission2=520 nm; dichroic mirror=D400/D505; delay time=100 μs. The signal of each well is determined as the ratio of the emission at 520 nm to that at 495 nm. Percent effect of each well is determined after normalization to control wells containing DMSO (no effect) or a saturating concentration of inhibitor (max effect). The apparent effect as a function of compound concentration is fit to a four parameter logistic equation.

NCI-H358 cells = assay: Cellular phospho-ERK assay; type: cell-based; details: 2 hour incubation, ratio of p-Erk vs total Erk, read-out: IC50 (nM) pERK (Cell)
Procedure: NCI-H358 cells (ATCC® CRL-5807™) were cultured in T150 flask in growth medium (RPMI medium 1640-(ThermoFisher Scientific 61870) containing 10% fetal bovine serum (ThermoFisher Scientific 10091148)). The cells were harvested in growth medium after TrypLE (ThermoFisher scientific 12604021) digestion and were seeded in 384-well collagen coated cell culture plate (Corning 356702) at a density of 15,000 cells/well, and incubated at 37° C., 5% CO2 overnight. The compound dose-response titrations were prepared and appropriate amounts of compounds were dispensed in a 384-well intermediate plate using an Echo 550 liquid handler. RPMI medium 1640-GlutaMAX™-I were added to the intermediate plate and transferred to 384-well cell culture plate, which was incubated at 37° C., 5% CO2 for 2 hours. After removal of medium from the plate, cells were lysed in lysis buffer from SureFire® Ultra™ Multiplex p-Erk and total Erk assay kit (PerkinElmer MPSU-PTERK) containing Halt™ Protease and Phosphotase inhibitor cocktail (ThermoFisher Scientific 78446) at room temperature with constant shaking at 300 rpm for 30 minutes. The cell lysates were then transferred to OptiPlate-384 plate (PerkinElmer 6005620) and the phosphorylation of Erk and total Erk levels were detected by Alpha SureFire Ultra Multiplex p-Erk kit PerkinElmer MPSU-PTERK) following the manufacturer's protocol. Assay plates were read on an EnVision Multimode Plate Reader (PerkinElmer), and the ratio of p-Erk vs total Erk in each well was used as the final readout. Dose response curves were analyzed using a 4-parameter logistic model to calculate IC50 values using spotfire software.

Row | IC50 [1] [nM] | IC50 (NCI-H358 cells; Homo sapiens, NCI-H358, 2 h) [nM] | IC50 (NCI-H358 cells) [nM] | Structure (SMILES)
1 | 990 | 23400 |  | C=CC(=O)N1CCN(c2nc(OC[C@@H]3CCCN3C)nc3c2CCC2(CCCc4ccnc(O)c42)O3)C[C@@H]1CC#N (mixture of isomers) [Example 8, 2-((2S)-1-acryloyl-4-(1-hydroxy-2′-(((S)-1-methylpyrrolidin-2-yl)methoxy)-5′,6,6′,7-tetrahydro-5H-spiro[isoquinoline-8,7′-pyrano[2,3-d]pyrimidin]-4′-yl)piperazin-2-yl)acetonitrile]
2 | 6.37 |  | 495 | C=CC(=O)N1CCN(c2nc(OC[C@@H]3CCCN3C)nc3c2CCC2(CCCc4cccc(C)c42)O3)C[C@@H]1CC#N (single isomer, unassigned) [Example 1a]
3 | 54.9 |  | 2860 | C=CC(=O)N1CCN(c2nc(OC[C@@H]3CCCN3C)nc3c2CCC2(CCCc4cccc(C)c42)O3)C[C@@H]1CC#N (single isomer, unassigned) [Example 1b]
4 | 13.7 | 154 |  | C=CC(=O)N1CCN(c2nc(OC[C@@H]3CCCN3C)nc3c2CCC2(CCCc4ccccc42)O3)C[C@@H]1CC#N (single isomer, unassigned) [Example 2a]
5 | 14.7 |  | 268 | C=CC(=O)N1CCN(c2nc(OC[C@@H]3CCCN3C)nc3c2CCC2(CCCc4ccccc42)O3)C[C@@H]1CC#N (single isomer, unassigned) [Example 2b]
6 | 14.5 |  | 506 | C=CC(=O)N1CCN(c2nc(OC[C@@H]3CCCN3C)nc3c2CCC2(CCCc4c(F)cccc42)O3)C[C@@H]1CC#N (single isomer, unassigned) [Example 3a]
7 | 51 |  | 1120 | C=CC(=O)N1CCN(c2nc(OC[C@@H]3CCCN3C)nc3c2CCC2(CCCc4c(F)cccc42)O3)C[C@@H]1CC#N (single isomer, unassigned) [Example 3b]
8 | 14.9 |  | 311 | C=CC(=O)N1CCN(c2nc(OC[C@@H]3CCCN3C)nc3c2CCC2(CCc4ccccc42)O3)C[C@@H]1CC#N (single isomer, unassigned) [Example 4a]
9 | 164 |  | 2500 | C=CC(=O)N1CCN(c2nc(OC[C@@H]3CCCN3C)nc3c2CCC2(CCc4ccccc42)O3)C[C@@H]1CC#N (single isomer, unassigned) [Example 4b]
10 | 18.7 |  | 1250 | C=CC(=O)N1CCN(c2nc(OCC[C@@H]3CCCN3C)nc3c2CCC2(CCCc4ccccc42)O3)C[C@@H]1CC#N (single isomer, unassigned) [Example 5a]
11 | 274 |  | 5980 | C=CC(=O)N1CCN(c2nc(OCC[C@@H]3CCCN3C)nc3c2CCC2(CCCc4ccccc42)O3)C[C@@H]1CC#N (single isomer, unassigned) [Example 5b]
12 | 181 | 3100 |  | C=CC(=O)N1CCN(c2nc(OC[C@@H]3CCCN3C)nc3c2CCC2(CCC(C)(C)c4ccccc42)O3)C[C@@H]1CC#N (single isomer, unassigned) [Example 6a]
13 | 413 |  | 4370 | C=CC(=O)N1CCN(c2nc(OC[C@@H]3CCCN3C)nc3c2CCC2(CCC(C)(C)c4ccccc42)O3)C[C@@H]1CC#N (single isomer, unassigned) [Example 6b]
14 | 77.3 | 1620 |  | C=CC(=O)N1CCN(c2nc(OC[C@@H]3CCCN3C)nc3c2CCC2(CCC(F)(F)c4ccccc42)O3)C[C@@H]1CC#N (single isomer, unassigned) [Example 7a]
15 | 119 |  | 2150 | C=CC(=O)N1CCN(c2nc(OC[C@@H]3CCCN3C)nc3c2CCC2(CCC(F)(F)c4ccccc42)O3)C[C@@H]1CC#N (single isomer, unassigned) [Example 7b]
16 | 40.5 |  | 1940 | C=CC(=O)N1CCN(c2nc(OC[C@@H]3CCCN3C)nc3c2CCC2(CCC(C)c4ccccc42)O3)C[C@@H]1CC#N (single isomer, unassigned) [Example 9a]
17 | 34.2 |  | 1170 | C=CC(=O)N1CCN(c2nc(OC[C@@H]3CCCN3C)nc3c2CCC2(CCC(C)c4ccccc42)O3)C[C@@H]1CC#N (single isomer, unassigned) [Example 9b]
18 | 110 |  | 1840 | C=CC(=O)N1CCN(c2nc(OC[C@@H]3CCCN3C)nc3c2CCC2(CCC(C)c4ccccc42)O3)C[C@@H]1CC#N (single isomer, unassigned) [Example 9c]
19 | 149 |  | 2410 | C=CC(=O)N1CCN(c2nc(OC[C@@H]3CCCN3C)nc3c2CCC2(CCC(C)c4ccccc42)O3)C[C@@H]1CC#N (single isomer, unassigned) [Example 9d]
20 | 145 | 6640 |  | C=CC(=O)N1CCN(c2nc(OC[C@@H]3CCCN3C)nc3c2CCC2(O3)c3ccccc3CCC2C)C[C@@H]1CC#N (single isomer, unassigned) [Example 10a]
21 | 50 |  | 4530 | C=CC(=O)N1CCN(c2nc(OC[C@@H]3CCCN3C)nc3c2CCC2(O3)c3ccccc3CCC2C)C[C@@H]1CC#N (single isomer, unassigned) [Example 10b]
22 | 46.7 |  | 1800 | C=CC(=O)N1CCN(c2nc(OC[C@@H]3CCCN3C)nc3c2CCC2(CCCc4c(C)cc(C)cc42)O3)C[C@@H]1CC#N (single isomer, unassigned) [Example 11a]
23 | 661 |  | 28600 | C=CC(=O)N1CCN(c2nc(OC[C@@H]3CCCN3C)nc3c2CCC2(CCCc4c(C)cc(C)cc42)O3)C[C@@H]1CC#N (single isomer, unassigned) [Example 11b]
24 | 99.7 |  | 1330 | C=CC(=O)N1CCN(c2nc(OCC3(CN(C)C)CC3)nc3c2CCC2(CCCc4ccccc42)O3)C[C@@H]1CC#N (single isomer, unassigned) [Example 12a]
25 | 728 |  | 5620 | C=CC(=O)N1CCN(c2nc(OCC3(CN(C)C)CC3)nc3c2CCC2(CCCc4ccccc42)O3)C[C@@H]1CC#N (single isomer, unassigned) [Example 12b]
26 | 43.4 |  | 638 | C=CC(=O)N1CCN(c2nc(OC[C@@H]3CCCN3CC)nc3c2CCC2(CCCc4ccccc42)O3)C[C@@H]1CC#N (single isomer, unassigned) [Example 15a]
27 | 84 |  | 1810 | C=CC(=O)N1CCN(c2nc(OC[C@@H]3CCCN3CC)nc3c2CCC2(CCCc4ccccc42)O3)C[C@@H]1CC#N (single isomer, unassigned) [Example 15b]
28 | 18.9 |  | 246 | C=CC(=O)N1CCN(c2nc(OC[C@@H]3CC(F)(F)CN3C)nc3c2CCC2(CCCc4ccccc42)O3)C[C@@H]1CC#N (single isomer, unassigned) [Example 16a]
29 | 109 |  | 1650 | C=CC(=O)N1CCN(c2nc(OC[C@@H]3CC(F)(F)CN3C)nc3c2CCC2(CCCc4ccccc42)O3)C[C@@H]1CC#N (single isomer, unassigned) [Example 16b]
30 | 823 | 6680 |  | C=C(F)C(=O)N1CCN(c2nc(OC[C@@H]3CCCN3C)nc3c2CCC2(CCCc4ccccc42)O3)C[C@@H]1CC#N (single isomer, unassigned) [Example 17a]
